Values quoted from earlier work as cited in paper PMC7904743, “WIDOCK: a reactive docking protocol for virtual screening of covalent inhibitors” (Journal of Computer-Aided Molecular Design, 2021).
Where two headings read alike, the source gives them in different places.

How the values were obtained:
[1] = test system: NUDT7; conditions: protein labeling at 200 μM; experimental actives if % labeling higher than 50%; cited from earlier work
[2] = thiol reactivity, cited from earlier work
[3] = test system: OTUB2; conditions: experimental actives if % labeling higher than 50%, cited from earlier work
[4] = natural log of average rate constant k
[5] = natural logarithm of average rate constant
[6] = natural log of average rate constant
[7] = natural log of average kinetic rate constant

Row | SMILES | NUDT7 % labeling [1] [%] | ln(avg k) [2, 4] | ln(avg k) [2, 5] | OTUB2 % labeling [3] [%] | ln(avg k) [2, 6] | ln(avg k) [2, 7] | OTUB2 % labeling ([3]; OTUB2 protein labeling) [%]
1 | O=C(CCl)N1CCCc2cc(S(=O)(=O)N3CCCC3)ccc21 [PCM-0102625, O=C(CCl)N1CCCc2cc(S(=O)(=O)N3CCCC3)ccc21] | 0 | -15.992 | -15.992 | 0 |  |  | 
2 | O=C(CCl)N1c2ccccc2OCC1c1ccccc1 (stereo not drawn) [PCM-0102266, O=C(CCl)N1c2ccccc2OCC1c1ccccc1] | 11 | -16.335 | -16.335 | 0 |  |  | 
3 | O=C(CCl)Nc1ccc(Cl)cc1 [PCM-0102120, O=C(CCl)Nc1ccc(Cl)cc1] | 18 | -15.805 | -15.805 | 23 |  |  | 
4 | O=C(CCl)NCc1ccc(F)cc1C(F)(F)F [PCM-0102733, O=C(CCl)NCc1ccc(F)cc1C(F)(F)F] | 6 |  | -16.673 | 33 | -16.673 |  | 
5 | O=C(CCl)Nc1ccc(F)c(Cl)c1 [PCM-0102217, O=C(CCl)Nc1ccc(F)c(Cl)c1] | 0 | -15.473 | -15.473 | 14 |  |  | 
6 | O=C(Nc1ccccc1O)C1CCN(C(=O)CCl)CC1 [PCM-0102389, O=C(Nc1ccccc1O)C1CCN(C(=O)CCl)CC1] | 10 | -15.332 | -15.332 | 14 |  |  | 
7 | Cc1cc(CNC(=O)CCl)ccc1F [PCM-0102305, Cc1cc(CNC(=O)CCl)ccc1F] | 0 | -16.230 | -16.230 | 59 |  |  | 
8 | CN(Cc1cccs1)C(=O)CCl [PCM-0102636, CN(Cc1cccs1)C(=O)CCl] | 17 | -15.483 | -15.483 | 0 |  |  | 
9 | O=C(Nc1ccccc1)NN(C(=O)CCl)c1ccccc1 [PCM-0102957, O=C(Nc1ccccc1)NN(C(=O)CCl)c1ccccc1] | 100 |  |  |  | -15.066 | -15.066 | 0
10 | O=C(CCl)Nc1ccc2c(c1)OC1(CCCCC1)O2 [PCM-0102104, O=C(CCl)Nc1ccc2c(c1)OC1(CCCCC1)O2] | 8 | -15.658 | -15.658 | 47 |  |  | 
11 | CC(C)(C)c1cc(NC(=O)CCl)on1 [PCM-0102348, CC(C)(C)c1cc(NC(=O)CCl)on1] | 0 | -15.607 | -15.607 | 0 |  |  | 
12 | O=C(CCl)N1CCC2(CC1)OCCO2 [PCM-0102823, O=C(CCl)N1CCC2(CC1)OCCO2] | 0 |  |  |  | -16.068 | -16.068 | 0
13 | O=C(CCl)N(c1ccccc1)C1C=CS(=O)(=O)C1 (stereo not drawn) [PCM-0102372, O=C(CCl)N(c1ccccc1)C1C=CS(=O)(=O)C1] | 28 | -15.071 | -15.071 | 0 |  |  | 
14 | COC(=O)c1cccc(NC(=O)CCl)c1 [PCM-0103048, COC(=O)c1cccc(NC(=O)CCl)c1] | 0 |  |  |  | -15.795 | -15.795 | 87
15 | O=C(CCl)N1CCN(c2ccccc2[N+](=O)[O-])CC1 [PCM-0103016, O=C(CCl)N1CCN(c2ccccc2[N+](=O)[O-])CC1] | 27 |  |  |  | -15.523 | -15.523 | 9
16 | CC1CCC(N(C)C(=O)CCl)CC1 (stereo not drawn) [PCM-0103019, CC1CCC(N(C)C(=O)CCl)CC1] | 0 |  |  |  | -16.049 | -16.049 | 0
17 | O=C(CCl)NNC(=O)c1ccccc1Cl [PCM-0102954, O=C(CCl)NNC(=O)c1ccccc1Cl] | 0 |  |  |  | -17.060 | -17.060 | 80
18 | O=C(CCl)NCc1ccccc1 [PCM-0102538, O=C(CCl)NCc1ccccc1] | 0 | -16.796 | -16.796 | 28 |  |  | 
19 | O=C(CCl)Nc1ccc([N+](=O)[O-])cc1C(F)(F)F [PCM-0102406, O=C(CCl)Nc1ccc([N+](=O)[O-])cc1C(F)(F)F] | 0 | -16.390 | -16.390 | 0 |  |  | 
20 | O=C(CCl)NCc1ccccn1 [PCM-0102950, O=C(CCl)NCc1ccccn1] | 0 |  |  |  | -17.514 | -17.514 | 0
21 | COc1ccc(C2CCCN2C(=O)CCl)cc1 (stereo not drawn) [PCM-0102938, COc1ccc(C2CCCN2C(=O)CCl)cc1] | 100 |  |  |  | -15.798 | -15.798 | 0

Row | SMILES | NUDT7 % labeling [1] [%] | ln(avg k) [2, 4] | ln(avg k) [2, 5] | OTUB2 % labeling [3] [%] | ln(avg k) [2, 6] | ln(avg k) [2, 7] | OTUB2 % labeling ([3]; OTUB2 protein labeling) [%]
22 | Cc1cccc(C(C)C)c1NC(=O)CCl [PCM-0102358, Cc1cccc(C(C)C)c1NC(=O)CCl] | 0 | -16.961 | -16.961 | 0 |  |  | 
23 | Cc1ccc(NC(=O)CCl)c(F)c1 [PCM-0103028, Cc1ccc(NC(=O)CCl)c(F)c1] | 0 |  |  |  | -16.314 | -16.314 | 14
24 | O=C(CCl)Nc1ccccc1C(F)(F)F [PCM-0102170, O=C(CCl)Nc1ccccc1C(F)(F)F] | 0 | -16.769 | -16.769 | 0 |  |  | 
25 | CC(NC(=O)CCl)c1ccccc1Cl (stereo not drawn) [PCM-0102110, CC(NC(=O)CCl)c1ccccc1Cl] | 0 | -16.453 | -16.453 | 25 |  |  | 
26 | O=C(CCl)Nc1ccc(F)cc1Cl [PCM-0103040, O=C(CCl)Nc1ccc(F)cc1Cl] | 0 |  |  |  | -16.348 | -16.348 | 0
27 | O=C(CCl)N(C1CCCC1)C1CC1 [PCM-0103064, O=C(CCl)N(C1CCCC1)C1CC1] | 0 |  |  |  | -16.942 | -16.942 | 0
28 | NC(=O)C1CN(C(=O)CCl)c2ccccc2O1 (stereo not drawn) [PCM-0102245, NC(=O)C1CN(C(=O)CCl)c2ccccc2O1] | 12 | -15.513 | -15.513 | 15 |  |  | 
29 | CC(NC(=O)CCl)C12CC3CC(CC(C3)C1)C2 (stereo not drawn) [PCM-0102402, CC(NC(=O)CCl)C12CC3CC(CC(C3)C1)C2] | 7 | -17.061 | -17.061 | 24 |  |  | 
30 | CC1CN(C(=O)CCl)CCO1 (stereo not drawn) [PCM-0102830, CC1CN(C(=O)CCl)CCO1] | 0 |  |  |  | -16.218 | -16.218 | 0
31 | O=C(CCl)N1CCN(Cc2ccc3c(c2)CCO3)CC1 [PCM-0102814, O=C(CCl)N1CCN(Cc2ccc3c(c2)CCO3)CC1] | 0 |  |  |  | -15.537 | -15.537 | 0
32 | O=C(CCl)Nc1cc2ccccc2cc1C(=O)O [PCM-0102311, O=C(CCl)Nc1cc2ccccc2cc1C(=O)O] | 17 | -15.248 | -15.248 | 10 |  |  | 
33 | O=C(CCl)N1CCN(S(=O)(=O)c2ccc(F)c(Cl)c2)CC1 [PCM-0102343, O=C(CCl)N1CCN(S(=O)(=O)c2ccc(F)c(Cl)c2)CC1] | 12 | -15.080 | -15.080 | 0 |  |  | 
34 | CN(C)C(=O)CN1CCN(C(=O)CCl)CC1 [PCM-0102304, CN(C)C(=O)CN1CCN(C(=O)CCl)CC1] | 0 | -16.500 | -16.500 | 0 |  |  | 
35 | CC1CCCN(C(=O)C2CCN(C(=O)CCl)CC2)C1 (stereo not drawn) [PCM-0102933, CC1CCCN(C(=O)C2CCN(C(=O)CCl)CC2)C1] | 0 |  |  |  | -15.328 | -15.328 | 0
36 | O=C(CCl)N1CCN(S(=O)(=O)c2ccc(Cl)s2)CC1 [PCM-0102121, O=C(CCl)N1CCN(S(=O)(=O)c2ccc(Cl)s2)CC1] | 15 | -15.220 | -15.220 | 0 |  |  | 
37 | O=C(CCl)N1CCC(c2nc3ccccc3s2)CC1 [PCM-0103068, O=C(CCl)N1CCC(c2nc3ccccc3s2)CC1] | 65 |  |  |  | -15.772 | -15.772 | 0
38 | O=C(CCl)NCc1ccc(F)cc1 [PCM-0102192, O=C(CCl)NCc1ccc(F)cc1] | 0 | -16.677 | -16.677 | 31 |  |  | 
39 | CNC(=O)NC(=O)CCl [PCM-0102534, CNC(=O)NC(=O)CCl] | 0 | -16.522 | -16.522 | 0 |  |  | 
40 | O=C(CCl)Nc1ccc(N2CCOCC2)cc1 [PCM-0102582, O=C(CCl)Nc1ccc(N2CCOCC2)cc1] | 0 | -15.715 | -15.715 | 54 |  |  | 
41 | O=C(CCl)N1CCN(S(=O)(=O)c2ccccc2)CC1 [PCM-0102468, O=C(CCl)N1CCN(S(=O)(=O)c2ccccc2)CC1] | 0 | -15.364 | -15.364 | 8 |  |  | 
42 | CC1CCCCC1N(C)C(=O)CCl (stereo not drawn) [PCM-0103026, CC1CCCCC1N(C)C(=O)CCl] | 12 |  |  |  | -15.777 | -15.777 | 0
